Like-named read-outs stand apart in the source and are kept apart here. Each block holds one compound with its values, some of them ahead of it.
Columns and labels:
Type in all cases: cell-based
[1] = biological target: T1, rat α1B+α2b+β1b channels (N-type channels) (Rattus norvegicus, UniProt Q02294); test: Whole cell patch recordings, N-type calcium channel block (Examples 1 and 4); settings: block of N-type calcium channels, HEK cells, 5 mM barium as charge carrier
T1 construct: expressed in transfected cells
T1 sequence (Q02294 whole entry): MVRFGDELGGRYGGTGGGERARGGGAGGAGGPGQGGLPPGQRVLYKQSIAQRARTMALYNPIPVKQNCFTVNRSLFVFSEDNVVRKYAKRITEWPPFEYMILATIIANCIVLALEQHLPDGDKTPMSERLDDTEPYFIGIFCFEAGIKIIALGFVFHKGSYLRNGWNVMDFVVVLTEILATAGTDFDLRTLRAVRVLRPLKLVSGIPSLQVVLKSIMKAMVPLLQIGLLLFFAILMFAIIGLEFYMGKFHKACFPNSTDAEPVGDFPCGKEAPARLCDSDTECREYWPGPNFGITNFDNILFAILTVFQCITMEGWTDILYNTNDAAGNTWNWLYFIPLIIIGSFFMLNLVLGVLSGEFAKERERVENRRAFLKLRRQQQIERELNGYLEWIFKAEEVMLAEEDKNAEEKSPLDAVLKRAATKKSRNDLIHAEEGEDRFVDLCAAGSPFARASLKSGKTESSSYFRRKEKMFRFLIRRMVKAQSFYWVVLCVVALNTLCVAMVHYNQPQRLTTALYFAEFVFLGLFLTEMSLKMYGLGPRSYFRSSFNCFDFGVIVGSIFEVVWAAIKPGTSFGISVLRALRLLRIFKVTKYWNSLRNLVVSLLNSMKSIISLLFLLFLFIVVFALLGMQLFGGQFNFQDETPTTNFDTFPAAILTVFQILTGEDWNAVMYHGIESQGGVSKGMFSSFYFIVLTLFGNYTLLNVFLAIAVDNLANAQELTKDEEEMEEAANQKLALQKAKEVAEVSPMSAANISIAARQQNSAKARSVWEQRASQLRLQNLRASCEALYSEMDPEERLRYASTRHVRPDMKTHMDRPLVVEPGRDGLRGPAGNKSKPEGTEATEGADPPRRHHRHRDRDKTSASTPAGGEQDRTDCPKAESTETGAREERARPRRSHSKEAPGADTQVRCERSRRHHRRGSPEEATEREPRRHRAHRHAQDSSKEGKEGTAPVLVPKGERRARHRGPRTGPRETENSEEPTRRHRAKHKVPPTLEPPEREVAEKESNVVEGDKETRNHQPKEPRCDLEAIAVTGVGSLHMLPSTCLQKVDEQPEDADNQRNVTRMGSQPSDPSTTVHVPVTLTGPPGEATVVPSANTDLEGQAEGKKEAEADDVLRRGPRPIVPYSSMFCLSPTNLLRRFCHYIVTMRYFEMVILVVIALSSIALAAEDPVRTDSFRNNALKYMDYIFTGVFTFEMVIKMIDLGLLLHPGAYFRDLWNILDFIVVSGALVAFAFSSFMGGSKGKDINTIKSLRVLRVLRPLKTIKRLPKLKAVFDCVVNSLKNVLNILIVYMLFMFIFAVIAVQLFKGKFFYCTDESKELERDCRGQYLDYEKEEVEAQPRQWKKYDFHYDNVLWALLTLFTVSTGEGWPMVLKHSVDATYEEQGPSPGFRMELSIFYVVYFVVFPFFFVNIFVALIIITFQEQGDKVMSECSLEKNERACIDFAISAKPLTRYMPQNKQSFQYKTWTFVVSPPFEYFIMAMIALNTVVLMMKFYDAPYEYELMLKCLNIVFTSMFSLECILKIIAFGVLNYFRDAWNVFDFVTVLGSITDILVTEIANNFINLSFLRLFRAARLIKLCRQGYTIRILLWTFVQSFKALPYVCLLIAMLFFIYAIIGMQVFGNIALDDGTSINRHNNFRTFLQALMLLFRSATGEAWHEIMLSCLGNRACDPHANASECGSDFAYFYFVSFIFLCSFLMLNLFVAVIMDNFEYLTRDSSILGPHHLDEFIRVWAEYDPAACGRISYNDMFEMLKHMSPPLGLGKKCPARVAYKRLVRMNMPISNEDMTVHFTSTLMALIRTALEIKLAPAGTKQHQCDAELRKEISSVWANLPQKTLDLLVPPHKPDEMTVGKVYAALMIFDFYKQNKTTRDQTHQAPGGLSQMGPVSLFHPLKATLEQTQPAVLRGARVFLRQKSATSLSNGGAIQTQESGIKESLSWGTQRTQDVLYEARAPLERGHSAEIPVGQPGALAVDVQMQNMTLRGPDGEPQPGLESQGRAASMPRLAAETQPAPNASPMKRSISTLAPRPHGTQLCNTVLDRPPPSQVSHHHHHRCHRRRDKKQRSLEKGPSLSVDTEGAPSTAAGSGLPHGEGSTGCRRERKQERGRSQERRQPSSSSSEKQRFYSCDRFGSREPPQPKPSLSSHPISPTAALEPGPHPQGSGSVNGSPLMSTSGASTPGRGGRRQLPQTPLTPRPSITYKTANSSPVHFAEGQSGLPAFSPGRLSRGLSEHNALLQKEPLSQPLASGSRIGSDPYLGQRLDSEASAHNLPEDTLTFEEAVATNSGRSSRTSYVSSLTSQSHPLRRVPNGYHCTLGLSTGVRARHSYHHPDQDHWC
T1 sequence (P54290 25-944 partner limits assumed): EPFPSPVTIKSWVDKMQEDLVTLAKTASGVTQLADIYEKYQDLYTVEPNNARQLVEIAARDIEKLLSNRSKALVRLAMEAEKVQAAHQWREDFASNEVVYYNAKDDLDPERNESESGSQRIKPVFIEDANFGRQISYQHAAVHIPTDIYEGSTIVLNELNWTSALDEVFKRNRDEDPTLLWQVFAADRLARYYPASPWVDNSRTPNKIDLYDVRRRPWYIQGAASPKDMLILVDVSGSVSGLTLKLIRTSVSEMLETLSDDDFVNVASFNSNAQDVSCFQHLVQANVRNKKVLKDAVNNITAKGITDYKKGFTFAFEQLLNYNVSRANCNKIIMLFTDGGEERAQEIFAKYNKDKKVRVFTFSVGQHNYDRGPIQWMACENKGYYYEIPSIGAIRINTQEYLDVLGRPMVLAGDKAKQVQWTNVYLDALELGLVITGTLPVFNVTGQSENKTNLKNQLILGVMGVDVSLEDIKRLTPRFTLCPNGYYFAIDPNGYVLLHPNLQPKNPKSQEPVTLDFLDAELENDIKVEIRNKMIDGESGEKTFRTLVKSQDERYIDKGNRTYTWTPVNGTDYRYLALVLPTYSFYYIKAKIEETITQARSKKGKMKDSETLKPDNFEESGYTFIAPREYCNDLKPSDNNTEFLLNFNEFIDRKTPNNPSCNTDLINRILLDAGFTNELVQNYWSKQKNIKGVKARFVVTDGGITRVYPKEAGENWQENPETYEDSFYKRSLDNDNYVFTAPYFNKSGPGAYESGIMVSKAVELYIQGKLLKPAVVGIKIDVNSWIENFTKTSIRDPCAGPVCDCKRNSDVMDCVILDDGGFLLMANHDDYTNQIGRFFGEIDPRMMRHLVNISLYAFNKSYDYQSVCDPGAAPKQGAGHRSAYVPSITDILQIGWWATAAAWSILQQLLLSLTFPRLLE
T1 sequence (P54290 945-1091 partner limits assumed): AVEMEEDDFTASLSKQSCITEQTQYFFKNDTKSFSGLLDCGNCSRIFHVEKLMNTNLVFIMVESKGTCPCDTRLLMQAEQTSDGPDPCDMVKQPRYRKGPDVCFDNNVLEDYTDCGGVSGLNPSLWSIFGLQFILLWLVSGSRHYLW
T1 sequence (P54283 whole entry partner): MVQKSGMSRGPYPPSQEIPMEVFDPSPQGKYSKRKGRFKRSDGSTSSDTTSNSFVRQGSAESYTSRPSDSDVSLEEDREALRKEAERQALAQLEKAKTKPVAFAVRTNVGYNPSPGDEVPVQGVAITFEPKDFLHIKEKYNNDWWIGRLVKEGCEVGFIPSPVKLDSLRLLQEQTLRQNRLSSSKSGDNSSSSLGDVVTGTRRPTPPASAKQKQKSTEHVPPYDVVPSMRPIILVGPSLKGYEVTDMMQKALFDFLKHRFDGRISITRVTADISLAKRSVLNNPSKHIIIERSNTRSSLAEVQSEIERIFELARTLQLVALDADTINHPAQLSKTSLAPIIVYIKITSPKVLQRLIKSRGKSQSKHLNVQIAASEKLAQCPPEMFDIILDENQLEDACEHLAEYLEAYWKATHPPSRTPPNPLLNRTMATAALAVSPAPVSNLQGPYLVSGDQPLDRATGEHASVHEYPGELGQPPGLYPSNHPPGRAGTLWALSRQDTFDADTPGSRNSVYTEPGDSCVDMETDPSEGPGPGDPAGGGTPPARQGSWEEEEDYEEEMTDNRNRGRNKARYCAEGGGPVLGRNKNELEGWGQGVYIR
Protocol: Antagonist activity was measured using whole cell patch recordings on human embryonic kidney cells either stably or transiently expressing rat α1B+α2b+β1b channels (N-type channels) with 5 mM barium as a charge carrier.
For transient expression, host cells, such as human embryonic kidney cells, HEK 293 (ATCC# CRL 1573) were grown in standard DMEM medium supplemented with 2 mM glutamine and 10% fetal bovine serum. HEK 293 cells were transfected by a standard calcium-phosphate-DNA coprecipitation method using the rat α1B+β1b+α2δ N-type calcium channel subunits in a vertebrate expression vector (for example, see Current Protocols in Molecular Biologyl ).
After an incubation period of from 24 to 72 hrs the culture medium was removed and replaced with external recording solution (see below). Whole cell patch clamp experiments were performed using an Axopatch 200B amplifier (Axon Instruments, Burlingame, Calif.) linked to an IBM compatible personal computer equipped with pCLAMP software. Borosilicate glass patch pipettes (Sutter Instrument Co., Novato, Calif.) were polished (Microforge, Narishige, Japan) to a resistance of about 4 MΩ when filled with cesium methanesulfonate internal solution (composition in MM: 109 CsCH3SO4, 4 MgCl2, 9 EGTA, 9 HEPES, pH 7.2). Cells were bathed in 5 mM Ba^++ (in mM: 5 BaCl2, 1 MgCl2, 10 HEPES, 40 tetraethylammonium chloride, 10 glucose, 87.5 CsCl pH 7.2). Current data shown were elicited by a train of 100 ms test pulses at 0.066 Hz from −100 mV and/or −80 mV to various potentials (min. −20 mV, max. +30 mV). Drugs were perfused directly into the vicinity of the cells using a microperfusion system.
Normalized dose-response curves were fit (Sigmaplot 4.0, SPSS Inc., Chicago, Ill.) by the Hill equation to determine IC50 values. Steady-state inactivation curves were plotted as the normalized test pulse amplitude following 5 s inactivating prepulses at +10 mV increments. Inactivation curves were fit (Sigmaplot 4.0) with the Boltzman equation, Ipeak (normalized)=1/(1+exp((V−Vh)z/25.6)), where V and Vh are the conditioning and half inactivation potentials, respectively, and z is the slope factor.

[2] = biological target: P/Q-type channels (α1A+α2δ+β1b cDNA subunits) (UniProt P54282); test: Whole cell patch clamp, tonic and frequency dependent block, P/Q-type channels in HEK 293 (Example 5)
Protocol: (§1) N-type calcium channel blocking activity was assayed in human embryonic kidney cells, HEK 293, stably transfected with the rat brain N-type calcium channel subunits (α1B+α2δ+β1b cDNA subunits). Alternatively, N-type calcium channels (α1B+α2δ+β1b cDNA subunits), L-type channels (α1C+α2δ+β1b cDNA subunits) and P/Q-type channels (α1A+α2δ+β1b cDNA subunits) were transiently expressed in HEK 293 cells. Briefly, cells were cultured in Dulbecco's modified eagle medium (DMEM) supplemented with 10% fetal bovine serum, 200 U/ml penicillin and 0.2 mg/ml streptomycin at 37° C. with 5% CO2. At 85% confluency cells were split with 0.25% trypsin/1 mM EDTA and plated at 10% confluency on glass coverslips. At 12 hours the medium was replaced and the cells transiently transfected using a standard calcium phosphate protocol and the appropriate calcium channel cDNAs. Fresh DMEM was supplied and the cells transferred to 28° C./5% CO2. Cells were incubated for 1 to 2 days to whole cell recording.
(§2) Whole cell patch clamp experiments were performed using an Axopatch 200B amplifier (Axon Instruments, Burlingame, Calif.) linked to a personal computer equipped with pCLAMP software. The external and internal recording solutions contained, respectively, 5 mM BaCl2, 1 mM MgCl2, 10 mM HEPES, 40 mM TEACl, 10 mM glucose, 87.5 mM CsCl (pH 7.2) and 108 mM CsMS, 4 mM MgCl2, 9 mM EGTA, 9 mM HEPES (pH 7.2). Currents were typically elicited from a holding potential of −80 mV to +10 mV using Clampex software (Axon Instruments). Typically, currents were first elicited with low frequency stimulation (0.03 Hz) and allowed to stabilize prior to application of the compounds. The compounds were then applied during the low frequency pulse trains for two to three minutes to assess tonic block, and subsequently the pulse frequency was increased to 0.2 Hz to assess frequency dependent block. Data were analyzed using Clampfit (Axon Instruments) and SigmaPlot 4.0 (Jandel Scientific).
(§3) Tables 2 and 3 show the results of similar experiments conducted with P/Q-type and L-type channels expressed in HEK 293 cells.

[3] = biological target: T2, N-type calcium channels (α1B+α2δ+β1b cDNA subunits) (Rattus norvegicus, UniProt Q02294); test: Whole cell patch clamp, tonic and frequency dependent block, N-type channels in HEK 293 (Example 5); settings: for % Block (100 nM) 0.03 Hz: 0.03 Hz (tonic block); for % Block (100 nM) 0.2 Hz: 0.2 Hz (frequency dependent block)
T2 construct: expressed in transfected cells
T2 sequence (Q02294 whole entry): as the sequence (Q02294 whole entry) above
T2 sequence (P54290 25-944 partner limits assumed): as the sequence (P54290 25-944 partner limits assumed) above
T2 sequence (P54290 945-1091 partner limits assumed): as the sequence (P54290 945-1091 partner limits assumed) above
T2 sequence (P54283 whole entry partner): as the sequence (P54283 whole entry partner) above
Protocol: as §1, §2

[4] = biological target: T3, L-type channels (α1C+α2δ+β1b cDNA subunits) (UniProt P22002); test: Whole cell patch clamp, tonic and frequency dependent block, L-type channels in HEK 293 (Example 5)
T3 construct: other: α1C (L-type), 100 nM, 0.03 Hz; other: α1C (L-type), 100 nM, 0.2 Hz; other: α1C (L-type), 0.03 Hz; other: α1C (L-type), 0.2 Hz
Protocol: as §1, §2, §3

[5] = Table 4 summary, 0.2 Hz, P/Q-type, unit not given in Table 4 (μM in Table 2), read-out: P/Q (IC50 values)
[6] = α1A (P/Q-type), 0.03 Hz, read-out: Estimated IC50 (μM) 0.03 Hz
[7] = α1A (P/Q-type), 0.2 Hz, read-out: Estimated IC50 (μM) 0.2 Hz
[8] = Table 4 summary, 0.2 Hz, N-type, unit not given in Table 4 (μM in Table 1), read-out: N (IC50 values)
[9] = α1B (N-type), 0.03 Hz, read-out: Estimated IC50 (μM) 0.03 Hz
[10] = α1B (N-type), 0.2 Hz, read-out: Estimated IC50 (μM) 0.2 Hz
[11] = Table 4 summary, 0.2 Hz, L-type, unit not given in Table 4 (μM in Table 3), read-out: L (IC50 values)
[12] = α1C (L-type), 0.03 Hz, read-out: Estimated IC50 (μM) 0.03 Hz
[13] = α1C (L-type), 0.2 Hz, read-out: Estimated IC50 (μM) 0.2 Hz

IC50 [1]: 14200 nM
SMILES: O=C(C(c1ccccc1)C1CCCCC1)N1CCN(Cc2ccccc2)CC1 (stereo not drawn) [Φ, Cy; CHCO; N; 1; Φ]

IC50 [1]: 20000 nM
SMILES: c1ccc(C(CN2CCN(CC(c3ccccc3)C3CCCCC3)CC2)c2ccccc2)cc1 (stereo not drawn) [Φ, Cy; CHCH2; N; 1; CHΦ2]

IC50 [1]: 10200 nM
SMILES: O=C(CCCCCC(c1ccccc1)C1CCCCC1)N1CCN(C(c2ccccc2)c2ccccc2)CC1 (stereo not drawn) [Φ, Cy; CH(CH2)5CO; N; 0; CHΦ2]

IC50 [1]: 2000 nM
SMILES: c1ccc(CNC2CCN(CCC(c3ccccc3)c3ccccc3)CC2)cc1 [Φ, Φ; CH(CH2)2; CHNH; 1; Φ]

IC50 [1]: 3100 nM
SMILES: c1ccc(CCN2CCN(CCCCCC(c3ccccc3)C3CCCCC3)CC2)cc1 (stereo not drawn) [Φ, Cy; CH(CH2)5; N; 2; Φ]

Further lines, the compound ahead of its results:

SMILES: O=C(C(c1ccccc1)C1CCCCC1)N1CCN(CC=Cc2ccccc2)CC1 (stereo not drawn) [Φ, Cy; CHCO; N; 1; CH═CHΦ]
IC50 [1]: 5900 nM

SMILES: c1ccc(C(CN2CCN(CC3CCCCC3)CC2)C2CCCCC2)cc1 (stereo not drawn) [Φ, Cy; CHCH2; N; 1; Cy]
IC50 [1]: 20200 nM

SMILES: O=C(CCCCC(c1ccccc1)C1CCCCC1)N1CCN(CC=Cc2ccccc2)CC1 (stereo not drawn) [Φ, Cy; CH(CH2)4CO; N; 1; CH═CHΦ]
IC50 [1]: 3900 nM

SMILES: C(CCN1CCN(CC2CCCCC2)CC1)=C(c1ccccc1)c1ccccc1 [Φ, Φ; C═CH(CH2)2; N; 1; Cy]
IC50 [1]: 5200 nM

SMILES: COc1ccc(CN2CCN(C(c3ccc(F)cc3)c3ccc(F)cc3)CC2)c(OC)c1OC [39-36-1 Lomerizine, Lomerizine, reference compound]
IC50 [2, 5]: 0.07 µM | % Block (100 nM) 0.03 Hz ([2]; α1A (P/Q-type), 0.03 Hz): 25% | % Block (100 nM) 0.2 Hz ([2]; α1A (P/Q-type), 0.2 Hz): 57% | IC50 [2, 6]: 0.46 µM | IC50 [2, 7]: 0.07 µM | IC50 [3, 8]: 0.09 µM | % Block (100 nM) 0.03 Hz ([3]; α1B (N-type)): 24% | % Block (100 nM) 0.2 Hz ([3]; α1B (N-type)): 54% | IC50 [3, 9]: 0.39 µM | IC50 [3, 10]: 0.09 µM | IC50 [4, 11]: 0.15 µM | % Block (100 nM) 0.03 Hz ([4]; α1C (L-type), 0.03 Hz): 26% | % Block (100 nM) 0.2 Hz ([4]; α1C (L-type), 0.2 Hz): 44% | IC50 [4, 12]: 0.29 µM | IC50 [4, 13]: 0.15 µM

SMILES: COc1cc(C(=O)N2CCN(C(c3ccc(F)cc3)c3ccc(F)cc3)CC2)cc(OC)c1OC [39-36-2]
IC50 [2, 5]: 0.11 µM | % Block (100 nM) 0.03 Hz ([2]; α1A (P/Q-type), 0.03 Hz): 35% | % Block (100 nM) 0.2 Hz ([2]; α1A (P/Q-type), 0.2 Hz): 52% | IC50 [2, 6]: 0.31 µM | IC50 [2, 7]: 0.11 µM | IC50 [3, 8]: 0.07 µM | % Block (100 nM) 0.03 Hz ([3]; α1B (N-type)): 29% | % Block (100 nM) 0.2 Hz ([3]; α1B (N-type)): 60% | IC50 [3, 9]: 0.32 µM | IC50 [3, 10]: 0.07 µM | IC50 [4, 11]: 0.4 µM | % Block (100 nM) 0.03 Hz ([4]; α1C (L-type), 0.03 Hz): 11% | % Block (100 nM) 0.2 Hz ([4]; α1C (L-type), 0.2 Hz): 22% | IC50 [4, 12]: 2.1 µM | IC50 [4, 13]: 0.4 µM

Reference: patent publication US7064128B2, “Preferentially substituted calcium channel blockers” (NeuroMed Technologies, Inc., priority 1998, dated 2006)
